The values that follow come from ChEMBL document CHEMBL1201862, “PubChem BioAssay data set” (2004).

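Growth conditions: 96-well plates. Treatment: test compound, 48 hours, 5 concentrations. Analysis: linear interpolation between bracketing concentrations; unreached endpoints set to highest concentration. Abbreviation: GI50, concentration required for 50% inhibition of growth.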 Activity calls are given as the source filed them. Cut-off read from the data, not from the text of the source: active = GI50 up to about 1.1 µM and inactive = higher.

Some test systems named below: EKVX; CCRF-CEM; SNB-78; HT-29; IGROV-1; M14; UACC-257; TK-10; UACC-62; SNB-75; OVCAR-8; 786-0; NCI-H23; NCI-H226; SK-MEL-2; KM12; CAKI-1; BT-549; PC-3; MCF7.
Common to all, as to test: NCI tumour cell line growth inhibition, 48 h

Consider `Cc1nn(C)c(=S)n(C)c1=O`, for which the GI50 in the assay with EKVX was 4.83 µM (inactive); in the assay with CCRF-CEM, 1.55 µM (inactive); in the assay on SNB-78, 3.18 µM (inactive); in the assay with HT-29, 24.8 µM (inactive); with IGROV-1, 1 µM (active); in the assay on M14 it was 0.773 µM (active). For the same molecule, the GI50 is 1.05 µM (active) with UACC-257; 4.69 µM (inactive) with TK-10; 0.757 µM (active) in the assay on UACC-62; 0.329 µM (active) with SNB-75; 0.571 µM (active) in the assay on OVCAR-8; 3.27 µM (inactive) in the assay on 786-0. For the same molecule, the GI50 is 0.483 µM (active) in the assay with NCI-H23, 7.53 µM (inactive) in the assay on NCI-H226 and 0.733 µM (active) with SK-MEL-2.
On to `C/C(CC(=O)Nc1ccc(Cl)cc1)=N\NC(N)=S`, for which the GI50 with EKVX is > 100 µM (inactive); in the assay on CCRF-CEM, 30 µM (inactive); in the assay with SNB-78, > 100 µM (inactive); in the assay on HT-29, > 100 µM (inactive); in the assay on IGROV-1, > 100 µM (inactive); with M14, 6.47 µM (inactive). Besides, the GI50 with UACC-257 was 21.9 µM (inactive); in the assay with TK-10 it was > 100 µM (inactive); with UACC-62, 4.95 µM (inactive); in the assay on SNB-75, > 100 µM (inactive); in the assay with OVCAR-8, > 100 µM (inactive); with 786-0, > 100 µM (inactive). Moreover, the values for the GI50 with KM12, with NCI-H23 and in the assay with SK-MEL-2 were 21.4 µM (inactive), > 100 µM (inactive) and > 100 µM (inactive), respectively.
Consider `O=[N+]([O-])c1cc(I)cc(/C=N/NS(=O)(=O)c2ccc(Cl)cc2)c1O`, for which the GI50 in the assay with EKVX is 32.6 µM (inactive); in the assay on CCRF-CEM it was 25.4 µM (inactive); in the assay with CAKI-1, 22.3 µM (inactive); with SNB-78, 27.5 µM (inactive); with HT-29, 16.3 µM (inactive); in the assay on IGROV-1, 20.3 µM (inactive). Moreover, the GI50 in the assay with M14 was 25.2 µM (inactive); in the assay on UACC-257, 24.4 µM (inactive); with TK-10 it was 30.8 µM (inactive); in the assay on UACC-62 it was 26.1 µM (inactive); in the assay with SNB-75, 27 µM (inactive); with OVCAR-8, 20.7 µM (inactive). Also, the GI50 in the assay with 786-0 was 21.1 µM (inactive); with KM12, 18.2 µM (inactive); with NCI-H23, 16.3 µM (inactive); in the assay on SK-MEL-2, 23.5 µM (inactive).
For the molecule `CC(=O)Oc1ccc2c(=O)c(C(C)=O)coc2c1`, the GI50 in the assay on EKVX is > 100 µM (inactive); in the assay with CCRF-CEM, > 100 µM (inactive); in the assay with CAKI-1, > 100 µM (inactive); in the assay on SNB-78 it was 80 µM (inactive); with HT-29, > 100 µM (inactive); with IGROV-1 it was > 100 µM (inactive). Besides, the GI50 in the assay with M14, with UACC-257, in the assay with TK-10, with OVCAR-8, with 786-0 and with KM12 was > 100 µM (inactive) each time. Moreover, the figures for the GI50 with NCI-H23, with NCI-H226 and in the assay with SK-MEL-2 were > 100 µM (inactive), 83.9 µM (inactive) and > 100 µM (inactive), respectively.
Regarding `CCCCCCCCCCCCCc1nnn[nH]1`, the GI50 was 23.4 µM (inactive) in the assay on EKVX; 18.8 µM (inactive) with CCRF-CEM; 21.4 µM (inactive) in the assay on SNB-78; 18 µM (inactive) in the assay on HT-29; 21.2 µM (inactive) in the assay on IGROV-1; 17.5 µM (inactive) in the assay on M14. For the same molecule, the GI50 in the assay on UACC-257 is 18.7 µM (inactive); with TK-10, 20.6 µM (inactive); in the assay on UACC-62, 18 µM (inactive); with SNB-75, 18.3 µM (inactive); in the assay with OVCAR-8, 29.9 µM (inactive); with 786-0 it was 17.3 µM (inactive). The GI50 in the assay with KM12 was 18.3 µM (inactive); in the assay with NCI-H23, 24.4 µM (inactive); with NCI-H226, 22.2 µM (inactive); in the assay with SK-MEL-2, 18.2 µM (inactive).
For the molecule `NCCn1cnc2nc(NC(=O)c3ccccc3)[nH]c(=O)c21`, the GI50 in the assay with EKVX, in the assay with SNB-78, with HT-29, in the assay on IGROV-1, in the assay on UACC-257 and in the assay on TK-10 was > 100 µM (inactive) each time. Further, the GI50 in the assay with SNB-75 is 45.7 µM (inactive); with OVCAR-8, > 100 µM (inactive); in the assay on 786-0 it was > 100 µM (inactive); in the assay on KM12 it was > 100 µM (inactive); in the assay on NCI-H23, > 100 µM (inactive); in the assay on NCI-H226, > 100 µM (inactive). In addition, the GI50 in the assay with SK-MEL-2 was > 100 µM (inactive).
For the molecule `CCOC(=O)c1oc2c(OC)cc(Cl)c3c2c1CCC3`, the GI50 in the assay with EKVX was > 100 µM (inactive); with CCRF-CEM, > 100 µM (inactive); in the assay on SNB-78, > 100 µM (inactive); with HT-29, > 100 µM (inactive); with IGROV-1, 38.3 µM (inactive); in the assay with M14, > 100 µM (inactive). Also, the GI50 was > 100 µM (inactive) in the assay on UACC-257; 27.4 µM (inactive) in the assay on TK-10; > 100 µM (inactive) in the assay with UACC-62; 26.2 µM (inactive) with SNB-75; 35.4 µM (inactive) in the assay on OVCAR-8; 30.8 µM (inactive) with 786-0. The GI50 is > 100 µM (inactive) in the assay on KM12, > 100 µM (inactive) in the assay with NCI-H23, 12.2 µM (inactive) in the assay on NCI-H226 and > 100 µM (inactive) in the assay with SK-MEL-2.
With `Cc1ccc(/C=N/C23CC4CC(CC(C4)C2)C3)cc1`, the GI50 in the assay on EKVX, in the assay with CAKI-1, with SNB-78, in the assay with HT-29, in the assay on IGROV-1 and in the assay on M14 was > 100 µM (inactive) throughout. The GI50 in the assay with UACC-257 is > 100 µM (inactive); with TK-10, > 100 µM (inactive); with SNB-75 it was 44.8 µM (inactive); in the assay on OVCAR-8, > 100 µM (inactive); in the assay with 786-0, > 100 µM (inactive); with KM12, > 100 µM (inactive). Further, the GI50 with NCI-H23 is > 100 µM (inactive); in the assay on NCI-H226 it was > 100 µM (inactive); in the assay with SK-MEL-2 it was 85.7 µM (inactive).
On to `CC(=O)OCC1OC(OCCCOP(=S)(OCCC#N)OCC2OC(n3ccc(N)nc3=O)C(OC(=O)c3ccccc3)C2OC(=O)c2ccccc2)C(OC(C)=O)C(OC(C)=O)C1OC(C)=O` (configuration not stated), for which the GI50 in the assay on EKVX, in the assay on BT-549, with CCRF-CEM, in the assay with CAKI-1, in the assay on HT-29 and in the assay with IGROV-1 was > 100 µM (inactive) throughout. For the same molecule, the GI50 was > 100 µM (inactive) with M14; > 100 µM (inactive) in the assay with UACC-257; > 100 µM (inactive) with TK-10; > 100 µM (inactive) in the assay with UACC-62; 75.5 µM (inactive) in the assay on SNB-75; > 100 µM (inactive) in the assay with OVCAR-8. Further, the GI50 in the assay on 786-0, with KM12, in the assay on NCI-H23, in the assay with NCI-H226, in the assay with SK-MEL-2 and with PC-3 was > 100 µM (inactive) each time. For the same molecule, the GI50 in the assay with MCF7 was 46.6 µM (inactive).
For the molecule `COC(=O)NC1(NC(=O)OC)NC(=O)c2ccccc2N1`, the GI50 with EKVX, in the assay on BT-549, in the assay on CCRF-CEM, in the assay on CAKI-1, in the assay with HT-29 and in the assay with IGROV-1 was > 100 µM (inactive) each time. The GI50 in the assay on M14 is > 100 µM (inactive); in the assay on UACC-257, > 100 µM (inactive); in the assay with TK-10 it was 96.2 µM (inactive); in the assay with UACC-62 it was > 100 µM (inactive); in the assay on SNB-75, 36 µM (inactive); with OVCAR-8, > 100 µM (inactive). For the same molecule, the GI50 in the assay with 786-0 is > 100 µM (inactive); with KM12, 80.4 µM (inactive); in the assay on NCI-H23, > 100 µM (inactive); in the assay on NCI-H226, > 100 µM (inactive); in the assay with SK-MEL-2, 0.0145 µM (active); in the assay on PC-3, > 100 µM (inactive). Also, in the assay with MCF7, the GI50 was > 100 µM (inactive).
On to `Cc1ncc([N+](=O)[O-])n1CCN(C)C(=O)CCCn1ccnc1[N+](=O)[O-]`, for which the GI50 in the assay on EKVX, with BT-549, in the assay with CCRF-CEM, in the assay on CAKI-1, in the assay with HT-29 and with IGROV-1 was > 100 µM (inactive) each time. The GI50 in the assay on M14, in the assay with UACC-257, in the assay on TK-10, with UACC-62, in the assay with SNB-75 and with OVCAR-8 was > 100 µM (inactive) each time. For the same molecule, the GI50 with 786-0, in the assay on KM12, in the assay on NCI-H23, in the assay on NCI-H226, in the assay on SK-MEL-2 and in the assay on PC-3 was > 100 µM (inactive) in each case. Besides, the GI50 in the assay on MCF7 is > 100 µM (inactive).
Regarding `Cc1ccc(/N=C2\C(=O)C3=C(OC(C)(C)CC3)c3ccccc32)cc1`, the GI50 with EKVX was 1.81 µM (inactive); with BT-549, 1.33 µM (inactive); in the assay with CCRF-CEM, 2.04 µM (inactive); with CAKI-1, 1.71 µM (inactive); in the assay on HT-29, 0.247 µM (active); with IGROV-1, 0.703 µM (active). For the same molecule, the GI50 with M14 is 0.459 µM (active); in the assay with UACC-257, 0.748 µM (active); in the assay on TK-10 it was 2.27 µM (inactive); in the assay with UACC-62, 1.49 µM (inactive); with SNB-75, 1.26 µM (inactive); in the assay with OVCAR-8 it was 0.357 µM (active). Moreover, the GI50 was 1.78 µM (inactive) with 786-0; 1.52 µM (inactive) with KM12; 1.08 µM (active) with NCI-H23; 2.86 µM (inactive) in the assay on NCI-H226; 1.7 µM (inactive) with SK-MEL-2; 1.22 µM (inactive) in the assay with PC-3. In addition, in the assay on MCF7, the GI50 was 0.29 µM (active).
